target: T1, PRMT5/MEP50 (Homo sapiens, UniProt O14744); assay: PRMT5 Biochemical Assay (PRMT5/MEP50 enzyme assay on peptide substrate, 3H-SAM Flashplate); conditions: Table D-2; read-out: Biochemical IC50
T1 construct: Expressed full-length human Flag-PRMT5/6His-MeP50 protein complex was purified; made in house; host or cells: Spodoptera frugiperda (SF9) insect cells, baculovirus (pDEST8)
T1 sequence (O14744 with tags, fused parts or gaps): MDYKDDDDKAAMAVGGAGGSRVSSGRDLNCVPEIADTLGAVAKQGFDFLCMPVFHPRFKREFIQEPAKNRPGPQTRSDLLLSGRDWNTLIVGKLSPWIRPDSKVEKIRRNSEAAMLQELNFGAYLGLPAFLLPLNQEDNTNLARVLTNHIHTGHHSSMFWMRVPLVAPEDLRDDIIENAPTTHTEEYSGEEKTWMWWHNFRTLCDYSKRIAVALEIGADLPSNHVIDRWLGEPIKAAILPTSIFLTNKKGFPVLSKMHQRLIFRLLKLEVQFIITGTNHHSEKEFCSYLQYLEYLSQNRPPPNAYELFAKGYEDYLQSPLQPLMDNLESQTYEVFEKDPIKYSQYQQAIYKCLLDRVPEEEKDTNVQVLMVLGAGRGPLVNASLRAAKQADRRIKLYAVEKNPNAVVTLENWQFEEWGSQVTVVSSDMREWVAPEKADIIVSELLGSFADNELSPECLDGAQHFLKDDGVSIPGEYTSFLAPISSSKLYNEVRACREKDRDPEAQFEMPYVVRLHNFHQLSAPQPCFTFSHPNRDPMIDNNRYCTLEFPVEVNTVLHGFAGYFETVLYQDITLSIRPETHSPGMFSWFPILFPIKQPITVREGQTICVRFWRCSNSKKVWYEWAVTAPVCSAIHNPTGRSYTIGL
T1 sequence (Q9BQA1 with tags, fused parts or gaps partner limits assumed): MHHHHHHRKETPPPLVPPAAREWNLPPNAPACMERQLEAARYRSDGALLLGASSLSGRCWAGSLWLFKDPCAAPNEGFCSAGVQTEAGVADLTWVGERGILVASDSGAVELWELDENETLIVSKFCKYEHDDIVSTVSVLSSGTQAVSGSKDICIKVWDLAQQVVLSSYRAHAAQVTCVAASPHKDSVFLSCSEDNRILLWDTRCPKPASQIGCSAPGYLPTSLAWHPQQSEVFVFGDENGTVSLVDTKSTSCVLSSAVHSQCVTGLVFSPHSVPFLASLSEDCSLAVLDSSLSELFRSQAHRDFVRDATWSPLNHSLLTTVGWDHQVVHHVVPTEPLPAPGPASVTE

Row | SMILES | IC50 [nM]
1 | O=C(c1ccc(Cn2nccc2-c2ccc(OCC(O)CN3CCc4ccccc4C3)cc2)cc1)N1CCCC1 (centres unmarked) [Compound D31] | 101 to 1000
2 | COC(COc1cccc(CNC2CCCC2)c1)CN1CCc2ccccc2C1 (centres unmarked) [Compound D32] | 1000 to 10000
3 | OC(CNc1cccc(CNC2CCCC2)c1)CN1CCc2ccccc2C1 (centres unmarked) [Compound D39] | 101 to 1000
4 | OC(COc1cccc(-c2ccccc2)c1)CN1CCc2ccccc2C1 (centres unmarked) [Compound D43] | 101 to 1000
5 | Cn1cnc2ccc(-c3cccc(OCC(O)CN4CCc5ccccc5C4)c3)cc21 (centres unmarked) [Compound D45] | < 100
6 | OC(COc1ccc(C2CCCNC2)cc1)CN1CCc2ccccc2C1 (centres unmarked) [Compound D47] | < 100
7 | CC(Oc1cccc(CNC2CCCC2)c1)C(O)CN1CCc2ccccc2C1 (centres unmarked) [Compound D49] | 101 to 1000
8 | CN(CC(O)CN1CCc2ccccc2C1)c1cccc(CNC2CCCC2)c1 (centres unmarked) [Compound D53] | 101 to 1000
9 | OC(COc1cccc(-c2ccc3cn[nH]c3c2)c1)CN1CCc2ccccc2C1 (centres unmarked) [Compound D58] | 101 to 1000
10 | OC(COc1cccc(-c2ccc3c(c2)OCO3)c1)CN1CCc2ccccc2C1 (centres unmarked) [Compound D59] | 101 to 1000
11 | Cn1cnc2cc(-c3cccc(OCC(O)CN4CCc5ccccc5C4)c3)ccc21 (centres unmarked) [Compound D60] | 101 to 1000
12 | OC(COc1cccc(-c2cc(C(F)(F)F)ccc2Cl)c1)CN1CCc2ccccc2C1 (centres unmarked) [Compound D62] | 101 to 1000
13 | CS(=O)(=O)c1ccc(-c2cccc(OCC(O)CN3CCc4ccccc4C3)c2)cc1 (centres unmarked) [Compound D63] | 101 to 1000
14 | OC(COc1cccc(-c2cccc3cccnc23)c1)CN1CCc2ccccc2C1 (centres unmarked) [Compound D65] | < 100
15 | CC(=O)c1cccc(-c2cccc(OCC(O)CN3CCc4ccccc4C3)c2)c1 (centres unmarked) [Compound D67] | 101 to 1000
16 | OC(COc1cccc(-c2cccc(F)c2F)c1)CN1CCc2ccccc2C1 (centres unmarked) [Compound D68] | 101 to 1000
17 | OCc1cccc(-c2cccc(OCC(O)CN3CCc4ccccc4C3)c2)c1 (centres unmarked) [Compound D72] | 101 to 1000
18 | COc1cccc(-c2cccc(OCC(O)CN3CCc4ccccc4C3)c2)c1 (centres unmarked) [Compound D74] | 101 to 1000
19 | COc1ccc(-c2cccc(OCC(O)CN3CCc4ccccc4C3)c2)cc1 (centres unmarked) [Compound D75] | 101 to 1000
20 | CC1c2ccccc2CCN1CC(O)COc1cccc(-c2ccc3ncn(C)c3c2)c1 (centres unmarked) [Compound D80] | 101 to 1000
21 | CC(C)n1cnc2ccc(-c3cccc(OCC(O)CN4CCc5ccccc5C4)c3)cc21 (centres unmarked) [Compound D81] | 101 to 1000
22 | COc1ccc(Cn2cnc3ccc(-c4cccc(OCC(O)CN5CCc6ccccc6C5)c4)cc32)cc1 (centres unmarked) [Compound D82] | 101 to 1000
23 | OC(COc1cccc(-c2ccc3nc[nH]c3c2)c1)CN1CCc2ccccc2C1 (centres unmarked) [Compound D83] | 101 to 1000
24 | OC(COc1cccc(-c2ccc3nn[nH]c3c2)c1)CN1CCc2ccccc2C1 (centres unmarked) [Compound D84] | 101 to 1000
25 | OC(COc1cccc(-c2ccc3c(c2)OCCO3)c1)CN1CCc2ccccc2C1 (centres unmarked) [Compound D85] | 101 to 1000

Row | SMILES | IC50 [nM]
26 | OC(COc1cccc(-c2cccc3c2oc2ccccc23)c1)CN1CCc2ccccc2C1 (centres unmarked) [Compound D86] | 101 to 1000
27 | COc1ccc(-c2cccc(OCC(O)CN3CCc4ccccc4C3)c2)c(Cl)c1 (centres unmarked) [Compound D88] | 101 to 1000
28 | OC(COc1cccc(-c2cnc3ccccc3c2)c1)CN1CCc2ccccc2C1 (centres unmarked) [Compound D89] | 101 to 1000
29 | COc1ccc(-c2cccc(OCC(O)CN3CCc4ccccc4C3)c2)c(C)c1 (centres unmarked) [Compound D90] | 101 to 1000
30 | OC(COc1cccc(-c2ccccc2Cl)c1)CN1CCc2ccccc2C1 (centres unmarked) [Compound D92] | 101 to 1000
31 | OC(COc1cccc(-c2ccc3ncn(C4CNC4)c3c2)c1)CN1CCc2ccccc2C1 (centres unmarked) [Compound D208] | 101 to 1000
32 | OC(COc1cccc(-c2ccc3ncn(C4CCNC4)c3c2)c1)CN1CCc2ccccc2C1 (centres unmarked) [Compound D209] | < 100
33 | Cn1cc2ccc(-c3cccc(OCC(O)CN4CCc5ccccc5C4)c3)nc2n1 (centres unmarked) [Compound D210] | < 100
34 | Cn1ncc2c1CN(c1cccc(OCC(O)CN3CCc4ccccc4C3)c1)CC2 (centres unmarked) [Compound D216] | 101 to 1000
35 | Cn1cnc2ccc(-c3cc(NCC(O)CN4CCc5ccccc5C4)ccn3)cc21 (centres unmarked) [Compound D217] | 101 to 1000
36 | CN1CC(n2cnc3ccc(-c4cccc(OCC(O)CN5CCc6ccccc6C5)c4)cc32)C1 (centres unmarked) [Compound D218] | < 100
37 | CN1CCC(n2cnc3ccc(-c4cccc(OCC(O)CN5CCc6ccccc6C5)c4)cc32)C1 (centres unmarked) [Compound D219] | < 100
38 | OC(COc1cccc(-c2ccc3ncn(C4CCNCC4)c3c2)c1)CN1CCc2ccccc2C1 (centres unmarked) [Compound D220] | < 100
39 | CN1CCC(n2cnc3ccc(-c4cccc(OCC(O)CN5CCc6ccccc6C5)c4)cc32)CC1 (centres unmarked) [Compound D221] | < 100
40 | O=C(Cn1ccc2cnc(-c3cccc(OCC(O)CN4CCc5ccccc5C4)c3)nc21)N1CCOCC1 (centres unmarked) [Compound D222] | 101 to 1000
41 | OC(COc1cccc(-c2cccc3[nH]cnc23)c1)CN1CCc2ccccc2C1 (centres unmarked) [Compound D223] | < 100
42 | Cn1cc2ccc(-c3cc(NCC(O)CN4CCc5ccccc5C4)ncn3)cc2n1 (centres unmarked) [Compound D224] | 101 to 1000
43 | Cn1ncc2ccc(-c3ccnc(NCC(O)CN4CCc5ccccc5C4)c3)cc21 (centres unmarked) [Compound D226] | < 100
44 | O=C(Cn1ccc2cnc(-c3ccnc(NCC(O)CN4CCc5ccccc5C4)c3)nc21)N1CCCC1 (centres unmarked) [Compound D233] | < 100
45 | O=C(Cn1ccc2cnc(-c3ccnc(NCC(O)CN4CCc5ccccc5C4)c3)nc21)N1CCOCC1 (centres unmarked) [Compound D234] | < 100
46 | OC(CNc1cccc(-c2cccc3[nH]cnc23)c1)CN1CCc2ccccc2C1 (centres unmarked) [Compound D235] | 101 to 1000
47 | Cn1cc2ccc(-c3ccnc(NCC(O)CN4CCc5ccccc5C4)c3)cc2n1 (centres unmarked) [Compound D236] | < 100
48 | Cn1ccc2ccc(-c3cc(NCC(O)CN4CCc5ccccc5C4)ncn3)cc21 (centres unmarked) [Compound D237] | 101 to 1000
49 | Cn1cnc2ccc(-c3ccnc(NCC(O)CN4CCc5ccccc5C4)c3)nc21 (centres unmarked) [Compound D238] | < 100
50 | Cn1ccc2cnc(-c3ccnc(NCC(O)CN4CCc5ccccc5C4)c3)nc21 (centres unmarked) [Compound D239] | < 100

Now from value to compound:

Row | IC50 [nM] | SMILES
51 | < 100 | OC(CNc1cc(-c2ccc3ncn(C4CCNC4)c3c2)ccn1)CN1CCc2ccccc2C1 (centres unmarked) [Compound D240]
52 | < 100 | OC(CNc1cc(-c2ccc3ncn(C4CCNCC4)c3c2)ccn1)CN1CCc2ccccc2C1 (centres unmarked) [Compound D241]
53 | 101 to 1000 | CC(=O)N1CCC(n2cnc3ccc(-c4ccnc(NCC(O)CN5CCc6ccccc6C5)c4)cc32)CC1 (centres unmarked) [Compound D242]
54 | 101 to 1000 | CC(=O)N1CCC(n2ccc3cnc(-c4cccc(OCC(O)CN5CCc6ccccc6C5)c4)nc32)CC1 (centres unmarked) [Compound D243]
55 | 101 to 1000 | CN1CCN(C(=O)Cn2ccc3cnc(-c4cccc(OCC(O)CN5CCc6ccccc6C5)c4)nc32)CC1 (centres unmarked) [Compound D244]
56 | < 100 | CNC(=O)Cn1ccc2cnc(-c3ccnc(NCC(O)CN4CCc5ccccc5C4)c3)nc21 (centres unmarked) [Compound D245]
57 | < 100 | O=C(Cn1ccc2cnc(-c3ccnc(NCC(O)CN4CCc5ccccc5C4)c3)nc21)N1CCCCC1 (centres unmarked) [Compound D246]
58 | < 100 | CN1CCN(C(=O)Cn2ccc3cnc(-c4ccnc(NCC(O)CN5CCc6ccccc6C5)c4)nc32)CC1 (centres unmarked) [Compound D247]
59 | 101 to 1000 | Cn1ncc2cnc(-c3cccc(OCC(O)CN4CCc5ccccc5C4)c3)cc21 (centres unmarked) [Compound D248]
60 | 101 to 1000 | O=C(Cn1cnc2ccc(-c3cccc(OCC(O)CN4CCc5ccccc5C4)c3)cc21)N1CCCCC1 (centres unmarked) [Compound D249]
61 | < 100 | CN1CCC(n2cnc3ccc(-c4ccnc(NCC(O)CN5CCc6ccccc6C5)c4)cc32)C1 (centres unmarked) [Compound D250]
62 | < 100 | OC(CNc1cc(-c2ccc3ncn(C4CCOCC4)c3c2)ccn1)CN1CCc2ccccc2C1 (centres unmarked) [Compound D251]
63 | < 100 | CN1CCC(n2cnc3ccc(-c4ccnc(NCC(O)CN5CCc6ccccc6C5)c4)cc32)CC1 (centres unmarked) [Compound D252]
64 | < 100 | OC(COc1cccc(-c2ncc3ccn(C4CCNCC4)c3n2)c1)CN1CCc2ccccc2C1 (centres unmarked) [Compound D253]
65 | < 100 | OC(CNc1cc(-c2ncc3ccn(C4CNC4)c3n2)ccn1)CN1CCc2ccccc2C1 (centres unmarked) [Compound D254]
66 | < 100 | OC(CNc1cc(-c2ncc3ccn(C4CCNCC4)c3n2)ccn1)CN1CCc2ccccc2C1 (centres unmarked) [Compound D255]
67 | < 100 | CC(=O)N1CCC(n2ccc3cnc(-c4ccnc(NCC(O)CN5CCc6ccccc6C5)c4)nc32)CC1 (centres unmarked) [Compound D256]
68 | < 100 | O[C@@H](COc1cccc(-c2cccc3cccnc23)c1)CN1CCc2ccccc2C1 [Compound D257]
69 | < 100 | Cn1cc2ccc(-c3cccc(NCC(O)CN4CCc5ccccc5C4)c3)nc2n1 (centres unmarked) [Compound D261]
70 | 101 to 1000 | CNC(=O)Cn1cnc2ccc(-c3cccc(OCC(O)CN4CCc5ccccc5C4)c3)cc21 (centres unmarked) [Compound D262]
71 | 101 to 1000 | O=C(Cn1cnc2ccc(-c3cccc(OCC(O)CN4CCc5ccccc5C4)c3)cc21)N1CCCC1 (centres unmarked) [Compound D263]
72 | 101 to 1000 | O=C(Cn1cnc2ccc(-c3cccc(OCC(O)CN4CCc5ccccc5C4)c3)cc21)N1CCOCC1 (centres unmarked) [Compound D264]
73 | < 100 | OC(CNc1cc(-c2ccc3ncn(C4COC4)c3c2)ccn1)CN1CCc2ccccc2C1 (centres unmarked) [Compound D265]
74 | < 100 | Cc1ncc2ccc(-c3cccc(OCC(O)CN4CCc5ccccc5C4)c3)cn12 (centres unmarked) [Compound D266]
75 | < 100 | OC(COc1cccc(-c2ccc3ncn(C4COC4)c3c2)c1)CN1CCc2ccccc2C1 (centres unmarked) [Compound D269]
76 | 101 to 1000 | CN1CCN(C(=O)Cn2cnc3ccc(-c4cccc(OCC(O)CN5CCc6ccccc6C5)c4)cc32)CC1 (centres unmarked) [Compound D270]
77 | 101 to 1000 | Cn1cnc2ccc(-c3cc(NCC(O)CN4CCc5ccccc5C4)n[nH]3)cc21 (centres unmarked) [Compound D271]
78 | 101 to 1000 | Cn1cnc2cc(-c3cc(NCC(O)CN4CCc5ccccc5C4)n[nH]3)ccc21 (centres unmarked) [Compound D272]
79 | < 100 | CC(=O)N(CC(O)CN1CCc2ccccc2C1)c1cccc(-c2ccc3ncn(C)c3c2)c1 (centres unmarked) [Compound D273]
80 | < 100 | Cn1cnc2ccc(-c3ccnc(NC[C@H](O)CN4CCc5ccccc5C4)c3)cc21 [Compound D275]

Source: patent US20150344457A1, “METHODS OF INHIBITING PRMT5” (EPIZYME, INC., priority 2012, published 2015)
